In brackets after ≈: the same amount, converted by molar mass.
How the values were obtained:
[1] = Determination of kinetic solubility (pH 7.4); type: physicochemical; settings: phosphate buffer, pH 7.4, aqueous buffer, kinetic from dmso stock, 50 mM phosphate buffer pH 7.4, read-out: Ksol, pH 7.4
How it was run: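 Solubility taken from filtrate peak areas on a calibration curve (HPLC-UV, LC-MS/MS). Before filtration and centrifugation, compound was shaken for 2 h at room temperature in pH 7.4 50 mM phosphate buffer.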

[2] = molecular target: KRAS G12C (GMPPNP-loaded) and cRAF (Ras-binding domain) interaction (Homo sapiens (Human), UniProt P01116, C118S/C51S/C80L/G12C); test: Inhibition of KRAS G12C and cRAF binding (AlphaScreen); settings: KRAS G12C loaded with GMPPNP, cRaf RBD, 2 hours preincubation; read-out: Raf-1 RBD K-Ras IC50
Chain of KRAS G12C (GMPPNP-loaded) and cRAF (Ras-binding domain) interaction (P01116 other isoform, or with tags, fused parts or gaps G12C/C51S/C80L/C118S): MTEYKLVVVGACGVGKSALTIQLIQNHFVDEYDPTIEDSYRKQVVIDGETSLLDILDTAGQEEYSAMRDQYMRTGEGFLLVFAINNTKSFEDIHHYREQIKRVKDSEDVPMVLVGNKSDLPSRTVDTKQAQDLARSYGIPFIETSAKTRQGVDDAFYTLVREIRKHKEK
How it was run: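 AlphaScreen readout (680 nm excitation, 570 nm emission) of RBD binding after a 60-90 min bead step at room temperature. This step follows 2 h compound exposure of GMPPNP-preloaded KRAS G12C in Hepes pH 7.4 buffer with MgCl2 and 10 μM GMPPNP.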

[3] = molecular target: KRAS G12C (GMPPNP-loaded) and PI3Ka (Ras-binding domain) interaction (Homo sapiens (Human), UniProt P01116, C118S/C51S/C80L/G12C); test: Inhibition of KRAS G12C and PI3Ka binding (AlphaScreen); settings: KRAS G12C loaded with GMPPNP, PI3Ka RBD, 2 hours preincubation; read-out: PI3K RBD K-Ras IC50
Chain of KRAS G12C (GMPPNP-loaded) and PI3Ka (Ras-binding domain) interaction (P01116 other isoform, or with tags, fused parts or gaps G12C/C51S/C80L/C118S): as above
How it was run: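 Biotin-AviTag Cys-light KRAS G12C (aa 1-169, C51S/C80L/C118S), GMPPNP-loaded, 1.5 nM, preincubated 2 h with compound, then His-tagged PI3Ka RBD (aa 157-300, 100 nM) plus AlphaScreen beads added for 60-90 min, RT. Buffer Hepes pH 7.4, 10 μM GMPPNP, 2% DMSO; 10-point 1:3 from 50 μM; 4-parameter IC50.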

[4] = Determination of logD (1-octanol / phosphate buffer pH 7.4); type: physicochemical; settings: 1-octanol/phosphate buffer, pH 7.4, pH 7.4, 1-octanol/phosphate buffer; read-out: Log D, pH 7.4
How it was run: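 Each phase analysed by LCMS after 1 h shaking at 800 rpm and centrifugation, room temperature. Phases were mutually saturated 1-octanol and 100 mM phosphate buffer at pH 7.4. LogD derived from the phase concentrations.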

SMILES	solubility kinetic at 2 h [1]	IC50 [2]	IC50 [3]	logD [4]
N#CC[C@H]1CN(c2nc(OC[C@@]34CCCN3C[C@H](F)C4)nc3c(F)c(-c4cccc5ccc(F)c(Cl)c45)ncc23)CCN1C(=O)/C=C/CN1[C@@H]2CC[C@H]1COC2 [Example 79, 2-((S)-1-((E)-4-((1R,5S)-3-oxa-8-azabicyclo[3.2.1]octan-8-yl)but-2-enoyl)-4-(7-(8-chloro-7-fluoronaphthalen-1-yl)-8-fluoro-2-(((2R,7aS)-2-fluorotetrahydro-1H-pyrrolizin-7a(5H)-yl)methoxy)pyrido[4,3-d]pyrimidin-4-yl)piperazin-2-yl)acetonitrile]	155 µg/mL (≈ 197 µM)	< 10 nM	< 10 nM	3.53
CN1CCC1/C=C/C(=O)N1CCN(c2nc(OC[C@@]34CCCN3C[C@H](F)C4)nc3c(F)c(-c4cccc5ccc(F)c(Cl)c45)ncc23)C[C@@H]1CC#N (stereo partly drawn) [Compound 54]	135 µg/mL (≈ 185 µM)	< 10 nM	< 10 nM	2.59
Cc1nccc(/C=C/C(=O)N2CCN(c3nc(OC[C@@]45CCCN4C[C@H](F)C5)nc4c3CCN(c3cccc5cccc(Cl)c35)C4)C[C@@H]2CC#N)n1 [Compound 123]	0.01 µg/mL (≈ 0.0138 µM)	< 10 nM	< 10 nM	4.46
CCO[C@H]1CCN(C/C=C/C(=O)N2CCN(c3nc(OC[C@@]45CCCN4C[C@H](F)C5)nc4c(F)c(-c5cccc6cccc(Cl)c56)ncc34)C[C@@H]2CC#N)C1 [Compound 91, 2-((S)-4-(7-(8-chloronaphthalen-1-yl)-8-fluoro-2-(((2R,7aS)-2-fluorohexahydro-1H-pyrrolizin-7a-yl)methoxy)pyrido[4,3-d]pyrimidin-4-yl)-1-((E)-4-((S)-3-ethoxypyrrolidin-1-yl)but-2-enoyl)piperazin-2-yl)acetonitrile]	110 µg/mL (≈ 143 µM)	< 10 nM	< 10 nM	1.83
N#CC[C@H]1CN(c2nc(OCC34CCCN3CCC4)nc3c2CCN(c2cccc4ccc(F)c(Cl)c24)C3)CCN1C(=O)/C=C/CN1CCOCC1 [Compound 50]	124 µg/mL (≈ 171 µM)	< 10 nM	< 10 nM	2.27
Cc1nsc(/C=C/C(=O)N2CCN(c3nc(OCC45CCCN4CCC5)nc4c3CCN(c3cccc5ccc(F)c(Cl)c35)C4)C[C@@H]2CC#N)n1 [Compound 141]	84 µg/mL (≈ 115 µM)	< 10 nM	< 10 nM	3.43
N#CC[C@H]1CN(c2nc(OCC34CCCN3CCC4)nc3c2CCN(c2cccc4cccc(Cl)c24)C3)CCN1C(=O)/C=C/c1nc(C2CC2)no1 [Compound 23]	12.5 µg/mL (≈ 17.3 µM)	10 to 100 nM	10 to 100 nM	3.38
N#CC[C@H]1CN(c2nc(OC[C@@]34CCCN3C[C@H](F)C4)nc3c(F)c(-c4cccc5cccc(Cl)c45)ncc23)CCN1C(=O)/C=C/CN1[C@@H]2CC[C@H]1COC2 [Example 87, 2-((S)-1-((E)-4-((1R,5S)-3-oxa-8-azabicyclo[3.2.1]octan-8-yl)but-2-enoyl)-4-(7-(8-chloronaphthalen-1-yl)-8-fluoro-2-(((2R,7aS)-2-fluorohexahydro-1H-pyrrolizin-7a-yl)methoxy)pyrido[4,3-d]pyrimidin-4-yl)piperazin-2-yl)acetonitrile]	69.8 µg/mL (≈ 90.7 µM)	< 10 nM	< 10 nM	3.27
N#CC[C@H]1CN(c2nc(OC[C@@]34CCCN3C[C@H](F)C4)nc3c(F)c(-c4cccc5ccc(F)c(Cl)c45)ncc23)CCN1C(=O)/C=C/CN1CC2(COC2)C1 [Compound 161]	87.7 µg/mL (≈ 113 µM)	< 10 nM	< 10 nM	2.75
N#CC[C@H]1CN(c2nc(OC[C@@]34CCCN3C[C@H](F)C4)nc3c(F)c(-c4cccc5cccc(Cl)c45)ncc23)CCN1C(=O)/C=C/CN1CC[C@H](F)C1 [Compound 95, 2-((S)-4-(7-(8-chloronaphthalen-1-yl)-8-fluoro-2-(((2R,7aS)-2-fluorohexahydro-1H-pyrrolizin-7a-yl)methoxy)pyrido[4,3-d]pyrimidin-4-yl)-1-((E)-4-((S)-3-fluoropyrrolidin-1-yl)but-2-enoyl)piperazin-2-yl)acetonitrile]	73.6 µg/mL (≈ 98.7 µM)	< 10 nM	< 10 nM	1.63

Further lines, results first:

solubility kinetic at 2 h [1]	IC50 [2]	IC50 [3]	logD [4]	SMILES
21.3 µg/mL (≈ 28 µM)	< 10 nM	< 10 nM	3.48	N#CC[C@H]1CN(c2nc(OC[C@@]34CCCN3C[C@H](F)C4)nc3c(F)c(-c4cccc5ccc(F)c(F)c45)ncc23)CCN1C(=O)/C=C/CN1CCSCC1 [Compound 238]
0.01 µg/mL (≈ 0.0134 µM)	< 10 nM	< 10 nM	4.32	N#CC[C@H]1CN(c2nc(OCC34CCCN3CCC4)nc3c2CCN(c2cccc4cccc(Cl)c24)C3)CCN1C(=O)/C=C/c1nc(C(F)(F)F)no1 [Example 17, (S,E)-2-(4-(7-(8-chloronaphthalen-1-yl)-2-((hexahydro-1H-pyrrolizin-7a-yl)methoxy)-5,6,7,8-tetrahydropyrido[3,4-d]pyrimidin-4-yl)-1-(3-(3-(trifluoromethyl)-1,2,4-oxadiazol-5-yl)acryloyl)piperazin-2-yl)acetonitrile]
89 µg/mL (≈ 115 µM)	10 to 100 nM	10 to 100 nM	3.54	C[C@@H]1CN(C/C=C/C(=O)N2CCN(c3nc(OC[C@@]45CCCN4C[C@H](F)C5)nc4c(F)c(-c5cccc6cccc(Cl)c56)ncc34)C[C@@H]2CC#N)C[C@H](C)O1 [Compound 186]
84 µg/mL (≈ 109 µM)	< 10 nM	< 10 nM	3.61	C[C@@H]1CN(C/C=C/C(=O)N2CCN(c3nc(OC[C@@]45CCCN4C[C@H](F)C5)nc4c(F)c(-c5cccc6cccc(Cl)c56)ncc34)C[C@@H]2CC#N)C[C@@H](C)O1 [Compound 187]
6.14 µg/mL (≈ 8.37 µM)	10 to 100 nM	< 10 nM	4.02	Cc1cc(/C=C/C(=O)N2CCN(c3nc(OC[C@@]45CCCN4C[C@H](F)C5)nc4c(F)c(-c5cccc6cccc(F)c56)ncc34)C[C@@H]2CC#N)nc(C)n1 [Compound 214]
91 µg/mL (≈ 122 µM)	< 10 nM	< 10 nM	2.85	N#CC[C@H]1CN(c2nc(OC[C@@]34CCCN3C[C@H](F)C4)nc3c(F)c(-c4cccc(Cl)c4C4CC4)ncc23)CCN1C(=O)/C=C/CN1C[C@@H]2C[C@H]1CO2 [Compound 277]
104 µg/mL (≈ 139 µM)	< 10 nM	< 10 nM	3.05	COCCN(C)C/C=C/C(=O)N1CCN(c2nc(OC[C@@]34CCCN3C[C@H](F)C4)nc3c(F)c(-c4cccc5cccc(Cl)c45)ncc23)C[C@@H]1CC#N [Compound 320]
139 µg/mL (≈ 195 µM)	< 10 nM	< 10 nM	2.47	Cc1cc(N)nc(C2Cc3nc(OC[C@@]45CCCN4C[C@H](F)C5)nc(N4CCN(C(=O)/C=C/CN(C)C)[C@@H](CC#N)C4)c3CC2C)c1C(F)(F)F (stereo partly drawn) [Compound 315]
45.9 µg/mL (≈ 59.7 µM)	< 10 nM	< 10 nM	4.55	CCc1nccc(/C=C/C(=O)N2CCN(c3nc(OC[C@@]45CCCN4C[C@H](F)C5)nc4c(F)c(-c5cccc6ccc(F)c(Cl)c56)ncc34)C[C@@H]2CC#N)n1 [Example 88, 2-((S)-4-(7-(8-chloro-7-fluoronaphthalen-1-yl)-8-fluoro-2-(((2R,7aS)-2-fluorotetrahydro-1H-pyrrolizin-7a(5H)-yl)methoxy)pyrido[4,3-d]pyrimidin-4-yl)-1-((E)-3-(2-ethylpyrimidin-4-yl)acryloyl)piperazin-2-yl)acetonitrile]
88.9 µg/mL (≈ 115 µM)	< 10 nM	< 10 nM	2.9	N#CC[C@H]1CN(c2nc(OC[C@@]34CCCN3C[C@H](F)C4)nc3c(F)c(-c4cccc5ccc(F)c(Cl)c45)ncc23)CCN1C(=O)/C=C/CN1C[C@@H]2C[C@H]1CO2 [Example 71, 2-((S)-1-((E)-4-((1S,4S)-2-oxa-5-azabicyclo[2.2.1]heptan-5-yl)but-2-enoyl)-4-(7-(8-chloro-7-fluoronaphthalen-1-yl)-8-fluoro-2-(((2R,7aS)-2-fluorotetrahydro-1H-pyrrolizin-7a(5H)-yl)methoxy)pyrido[4,3-d]pyrimidin-4-yl)piperazin-2-yl)acetonitrile]
94.7 µg/mL (≈ 125 µM)	< 10 nM	< 10 nM	2.86	CO[C@H]1CCN(C/C=C/C(=O)N2CCN(c3nc(OC[C@@]45CCCN4C[C@H](F)C5)nc4c(F)c(-c5cccc6cccc(Cl)c56)ncc34)C[C@@H]2CC#N)C1 [Compound 190]

From patent publication US20250129103A1, “METHODS FOR TREATMENT OF CANCER” (Frontier Medicines Corporation, priority 2022, published 2025)
